Tests used:
VEGFR-1 = VEGFR-1 (Homo sapiens, UniProt P17948); assay: VEGFR-1 inhibition, whole cell phosphotyrosine ELISA cytoblot; format: cell-based; conditions: whole cell assay
PDGFR-β = PDGFR-β (Homo sapiens, UniProt P09619); assay: PDGFR-β inhibition, whole cell phosphotyrosine ELISA cytoblot; format: cell-based; conditions: whole cell assay
Chain of PDGFR-β (P09619 33-1106): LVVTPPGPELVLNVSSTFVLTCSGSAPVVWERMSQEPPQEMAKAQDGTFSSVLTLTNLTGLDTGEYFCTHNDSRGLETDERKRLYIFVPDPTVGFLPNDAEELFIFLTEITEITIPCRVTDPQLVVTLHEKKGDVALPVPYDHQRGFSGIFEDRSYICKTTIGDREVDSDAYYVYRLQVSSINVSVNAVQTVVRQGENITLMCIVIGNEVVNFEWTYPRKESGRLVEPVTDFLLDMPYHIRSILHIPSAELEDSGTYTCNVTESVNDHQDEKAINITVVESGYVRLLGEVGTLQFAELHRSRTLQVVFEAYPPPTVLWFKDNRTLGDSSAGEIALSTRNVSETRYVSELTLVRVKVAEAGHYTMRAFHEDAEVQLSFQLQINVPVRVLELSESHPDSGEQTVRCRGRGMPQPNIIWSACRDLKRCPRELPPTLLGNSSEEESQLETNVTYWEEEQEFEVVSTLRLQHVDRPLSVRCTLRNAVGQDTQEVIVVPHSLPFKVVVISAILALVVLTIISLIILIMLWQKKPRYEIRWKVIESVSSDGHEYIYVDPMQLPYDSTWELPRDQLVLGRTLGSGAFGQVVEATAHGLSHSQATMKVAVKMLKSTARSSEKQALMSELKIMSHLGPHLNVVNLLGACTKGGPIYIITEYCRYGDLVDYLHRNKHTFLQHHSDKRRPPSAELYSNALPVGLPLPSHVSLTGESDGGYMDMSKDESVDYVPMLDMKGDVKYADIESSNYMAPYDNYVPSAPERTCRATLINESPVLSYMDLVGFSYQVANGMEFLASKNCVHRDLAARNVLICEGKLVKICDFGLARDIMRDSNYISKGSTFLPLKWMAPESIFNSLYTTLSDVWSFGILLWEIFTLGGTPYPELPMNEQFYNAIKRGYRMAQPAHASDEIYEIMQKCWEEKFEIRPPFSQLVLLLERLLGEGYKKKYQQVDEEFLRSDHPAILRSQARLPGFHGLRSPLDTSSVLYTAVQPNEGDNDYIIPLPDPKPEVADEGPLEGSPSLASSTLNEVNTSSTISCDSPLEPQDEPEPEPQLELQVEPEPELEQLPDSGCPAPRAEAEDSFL

Chain of VEGFR-1 (P17948 27-1338): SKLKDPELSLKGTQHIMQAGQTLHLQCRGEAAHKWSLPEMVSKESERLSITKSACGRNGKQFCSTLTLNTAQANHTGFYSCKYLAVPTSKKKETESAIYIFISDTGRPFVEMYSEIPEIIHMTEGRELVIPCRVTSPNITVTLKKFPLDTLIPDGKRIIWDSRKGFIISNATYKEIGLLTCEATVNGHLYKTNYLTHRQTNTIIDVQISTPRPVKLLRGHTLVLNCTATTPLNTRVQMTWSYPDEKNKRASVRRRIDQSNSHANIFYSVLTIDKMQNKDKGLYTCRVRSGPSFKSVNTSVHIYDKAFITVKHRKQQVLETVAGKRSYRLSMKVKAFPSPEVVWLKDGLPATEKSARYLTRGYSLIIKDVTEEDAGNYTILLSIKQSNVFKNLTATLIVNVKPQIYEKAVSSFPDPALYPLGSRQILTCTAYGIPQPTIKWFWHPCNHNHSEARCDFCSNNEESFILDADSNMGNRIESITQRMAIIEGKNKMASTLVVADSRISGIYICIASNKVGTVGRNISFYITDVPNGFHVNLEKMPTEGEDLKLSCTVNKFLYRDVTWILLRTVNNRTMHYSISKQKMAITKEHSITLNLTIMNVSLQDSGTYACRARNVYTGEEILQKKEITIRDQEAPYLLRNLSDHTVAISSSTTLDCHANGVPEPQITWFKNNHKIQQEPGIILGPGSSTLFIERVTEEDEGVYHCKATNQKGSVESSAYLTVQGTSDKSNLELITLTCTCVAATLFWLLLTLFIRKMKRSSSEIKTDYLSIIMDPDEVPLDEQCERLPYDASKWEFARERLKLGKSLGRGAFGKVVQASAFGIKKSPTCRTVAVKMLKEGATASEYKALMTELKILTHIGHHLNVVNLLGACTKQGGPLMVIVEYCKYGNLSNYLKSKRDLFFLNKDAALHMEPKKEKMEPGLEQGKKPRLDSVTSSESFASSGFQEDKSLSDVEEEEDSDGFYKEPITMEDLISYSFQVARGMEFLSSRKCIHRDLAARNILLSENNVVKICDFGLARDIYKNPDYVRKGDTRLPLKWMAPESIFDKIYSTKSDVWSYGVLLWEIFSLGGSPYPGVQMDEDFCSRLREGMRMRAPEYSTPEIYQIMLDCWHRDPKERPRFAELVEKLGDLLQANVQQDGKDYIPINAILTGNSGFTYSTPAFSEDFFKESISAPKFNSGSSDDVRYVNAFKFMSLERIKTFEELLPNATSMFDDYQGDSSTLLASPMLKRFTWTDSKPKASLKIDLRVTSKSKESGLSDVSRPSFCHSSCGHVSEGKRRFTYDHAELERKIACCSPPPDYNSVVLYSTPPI

Row | Structure (SMILES) | VEGFR-1 inhibition, result in words (VEGFR-1) | PDGFR-β inhibition, result in words (PDGFR-β)
1 | FC(F)(F)c1cccc(Nc2ncnc3[nH]c(CCc4ccccc4)cc23)c1 [Compound 21] | inactive | inactive
2 | Fc1cc(Cl)ccc1Nc1ncnc2[nH]c(CCc3ccccc3)cc12 [Compound 24] | inactive | inactive
3 | C#Cc1cccc(Nc2ncnc3[nH]c(CCc4ccccc4)cc23)c1 [Compound 20] | – | inactive
4 | Fc1ccc(Nc2ncnc3[nH]c(CCc4ccccc4)cc23)cc1Br [Compound 22] | inactive | –
5 | Fc1ccc(Nc2ncnc3[nH]c(CCc4ccccc4)cc23)cc1C(F)(F)F [Compound 23] | – | inactive

Reference: PMC2866134 (Bioorganic & medicinal chemistry letters, 2010)
